This is an account of results in paper PMC8197855, “Peptide/β-Peptoid Hybrids with Activity against Vancomycin-Resistant Enterococci: Influence of Hydrophobicity and Structural Features on Antibacterial and Hemolytic Properties” (International Journal of Molecular Sciences, 2021).

Structures are written as SMILES. ≈ marks a conversion by molar mass, not a printed value. Where “and” joins values, the source holds several entries; their conditions need not be identical. Equal entries are not always repeated. Where only a bound is given, the exact number is not on record here.

Data set [1] has as its system E. faecium ATCC 19434. As to the kind of experiment: Broth checkerboard assay with conventional antibiotics. Type of data set: cell-based, Enterococcus faecium. The following applies: antibiotic alone (-); BHI broth. The protocol: (§1) The strain culture preparation and final volume were the same as in the MIC assay. […] The plates were incubated for 24 h at 37 °C without shaking. […] All experiments were performed in two biological replicates.
(§2) To evaluate the effect of the combinations, the fractional inhibitory concentration index (FICI) was calculated for each combination according to:ΣFIC = FICA + FICB = (CA/MICA) + (CB/MICB)
(§3) The drug interaction was scored as follows: synergy—FICI ≤ 0.5; no interaction—FICI > 0.5–4; antagonism—FICI > 4 [40].

Data set [2] deals with E. faecalis ATCC 29212. The description is as above. Format: cell-based, Enterococcus faecalis. The following applies: antibiotic alone (-); BHI broth. The protocol:
as §1, §2, §3

For the next data set, the system named is E. faecium 1798. The experiment in a line: microbe, parasite or virus in culture. Type of data set: cell-based, Enterococcus faecium. The following applies: 1798, 24 h. The protocol:
(§4) Overnight cultures of the enterococcal isolates were diluted in physiological saline (0.9% NaCl) to reach a turbidity of 0.5 McFarland units (Sensititre® nephelometer and the Sensititre® McFarland Standard). Bacterial suspensions were adjusted to 5 × 10^5 CFU/mL in MHB II or BHI broth containing two-fold dilutions of peptidomimetics or conventional antibiotics in a final volume of 100 µL. The plates were incubated for 24 h at 37 °C without shaking. […] All experiments were performed in three biological replicates.

A further data set concerns E. faecium 2961. The experiment in a line: microbe, parasite or virus in culture. Format: cell-based, Enterococcus faecium. The following applies: 2961, 24 h. The protocol: as §4
A further data set concerns E. faecium 3978. As to the kind of experiment: microbe, parasite or virus in culture. Format: cell-based, Enterococcus faecium. The following applies: 3978, 24 h. The protocol: as §4
The next data set deals with E. faecium D344R. As to the kind of experiment: microbe, parasite or virus in culture. The following applies: E. faecium D344R, human clinical isolate; 24 h. Type of data set: cell-based, Enterococcus faecium. The method, then:
as §4

In data set [3] the test system is E. faecium ATCC 19434. The experiment in a line: microbe, parasite or virus in culture. Format: cell-based, Enterococcus faecium. The following applies: ATCC 19434, 24 h. The protocol:
(§5) Overnight cultures of the enterococcal isolates were diluted in physiological saline (0.9% NaCl) to reach a turbidity of 0.5 McFarland units (Sensititre® nephelometer and the Sensititre® McFarland Standard). Bacterial suspensions were adjusted to 5 × 10^5 CFU/mL in MHB II or BHI broth containing two-fold dilutions of peptidomimetics or conventional antibiotics in a final volume of 100 µL. The plates were incubated for 24 h at 37 °C without shaking. […] All experiments were performed in three biological replicates. […]

In data set [4] the test system is E. faecalis ATCC 29212. The experiment in a line: microbe, parasite or virus in culture. The following applies: ATCC 29212, 24 h. Format: cell-based, Enterococcus faecalis. The protocol: as §5
Data set [5] in a line: Hydrophobicity by analytical RP-HPLC (% MeCN at peak elution). Format: physicochemical. The protocol: Water was filtered by using an Evoqua LaboStar PRO TWF Ultra Pure Water System prior to use in high-performance liquid chromatography (HPLC). The retention time for each peptidomimetic was determined by analytical HPLC using a Phenomenex Luna C18(2) HST column (100 mm × 3 mm; particle size: 2.5 μm; pore size: 100 Å) on a Shimadzu Prominence and Shimadzu Nexera system using an aqueous MeCN gradient with 0.1% trifluoroacetic acid (TFA) added (eluent A: 5:95 MeCN–H2O + 0.1% TFA; eluent B: 95:5 MeCN–H2O + 0.1% TFA); a flow rate of 0.5 mL/min was used. For the elution of peptidomimetics, a linear gradient of 0% to 60% B over 10 min was used with UV detection at λ = 220 nm. The percentage MeCN at peak elution was calculated from the retention time (tR) by using the following formula:%MeCN = [0.95 × 0.6 × tR/10 + 0.05 × (1 − 0.6 × tR/10)] × 100%

The nature of another data set: Hemolytic activity. Format: cell-based, human. The following applies: human, human red blood cells (washed, 1% suspension), 37 °C, 1% red blood cell suspension. The protocol: A suspension of hRBCs (Single-donor human red blood cells—washed; catalogue No. IPLA-W3 from Innovative researchTM) was washed three times with PBS buffer and centrifuged for 5 min at 2500 rpm. A two-fold serial dilution of compounds in PBS buffer was prepared. Plates (conical-bottomed 96-well plates) with 3 replicate wells per dilution, containing 1% red blood cell suspension, were prepared and dosed with the test compound to achieve a final concentration of 400 μg/mL in a total volume of 100 μL. The plates were incubated (37 °C) for 60 min with mild agitation, and then the cells were pelleted by centrifugation at 1500 rpm for 5 min. Then, the supernatants (50 μL) were transferred to a fresh 96-well plate, and then the concentration of hemoglobin was detected by measuring the OD at 405 nm. The OD of cells incubated with 1% SDS achieved 100% hemolysis, while the OD of cells incubated with PBS buffer achieved 0% hemolysis. The concentration tested was 400 μg/mL (only average values are stated in Table 3). The percent hemolysis was calculated by using the formula:Hemolysis(%) = 100 × [(Asample − Aneg.control)/(Apos. control − Aneg.control)]

Data set [6] concerns HepG2 cell line ATCC HB-8065. The experiment in a line: Effect on HepG2 cell viability (MTT assay). Type of data set: cell-based, human. The following applies: 48 h. The protocol:
The effect of peptidomimetics on mammalian cell viability was determined on the HepG2 cell line ATCC HB-8065. In brief, HepG2 cells were seeded into flat-bottom 96-well plates at a concentration of 5000 cells per well. The cells were incubated for 24 h in a humidified incubator (5% CO2, 37 °C). Subsequently, the medium was removed, and the cells were incubated for 48 h in a humidified incubator (5% CO2, 37 °C) with peptidomimetics in serial dilutions. An MTT assay was then performed; in brief, after incubation with the test compounds, the culture medium was removed and fresh medium with 0.2 mg/mL MTT was then added into each well. After incubation (3 h, 37 °C, 5% CO2), the medium with MTT was removed, and 200 μL dimethyl sulfoxide was added at once to each sample. The absorbance of MTT was measured using the spectrophotometer TECAN Infinite M1000 at 540 nm. The relative viability was calculated by using the formula:ODtreated cells × 100/ODcontrol cells
The IC50 values were calculated using the program Graph Pad Prism 5.0. For all compounds, the test range was 10–1280 μg/mL.
For orientation: Tetrazolium dyes change colour on reduction, which living cells bring about.

A further data set has as its system E. faecium isolates. Type of data set: cell-based, Enterococcus faecium. The following applies: 24 h. The protocol: as §4
Another data set deals with E. faecalis 38262. As to the kind of experiment: microbe, parasite or virus in culture. Format: cell-based, Enterococcus faecalis. The protocol: as §4
For another data set, the system named is E. faecalis 39002. As to the kind of experiment: microbe, parasite or virus in culture. Format: cell-based, Enterococcus faecalis. The following applies: 39002, 24 h. The protocol:
as §4

As for `CC[C@H]1OC(=O)[C@H](C)[C@@H](O[C@H]2C[C@@](C)(OC)[C@@H](O)[C@H](C)O2)[C@H](C)[C@@H](O[C@@H]2O[C@H](C)C[C@H](N(C)C)[C@H]2O)[C@](C)(O)C[C@@H](C)CN(C)[C@H](C)[C@@H](O)[C@]1(C)O` [Azithromycin, azithromycin], the MIC of antibiotic with E. faecium ATCC 19434 [1] was 4 to 8 µg/mL; in the data set on E. faecalis ATCC 29212 [2] it was 1 to 2 µg/mL.

As for `C[C@@H](c1ccccc1)N(CCC(N)=O)C(=O)[C@H](CCCCN)NC(=O)CCN(C(=O)[C@H](CCCCNC(=N)N)NC(=O)CCN(C(=O)[C@H](CCCCN)NC(=O)CCN(C(=O)[C@H](CCCCNC(=N)N)NC(=O)CCN(C(=O)[C@H](CCCCN)NC(=O)CCN(C(=O)[C@H](CCCCNC(=N)N)NC(=O)CNCCCNCCCCNCCCN)[C@@H](C)c1ccccc1)[C@@H](C)c1ccccc1)[C@@H](C)c1ccccc1)[C@@H](C)c1ccccc1)[C@@H](C)c1ccccc1` [Compound 3, SpermineAc-[hArg-βNspe-Lys-βNspe]3-NH2], the Minimum inhibitory concentration is 4 to 8 µg/mL in the data set on E. faecium 1798; 8 µg/mL (≈ 3.63 µM) in the data set on E. faecium 2961; 8 µg/mL (≈ 3.63 µM) in the data set with E. faecium 3978; 4 to 8 µg/mL in the data set with E. faecium D344R; 16 to 32 µg/mL in the data set with E. faecium ATCC 19434 [3]; above 32 µg/mL in the data set with E. faecalis ATCC 29212 [4]. The “Hydrophobicity, Luna C18(2) HST (0–60% B; 10 min), retention converted into % MeCN” value (from here on “Hydrophobicity … retention converted into % MeCN”) in [5] is 40 % MeCN and 40.2 % MeCN. In the data set “Hemolytic activity”, this molecule showed a hemolysis at 60 min, 400 µg/mL of 0.6%. The “HepG2 IC50” value in data set [6] worked out at 41 µg/mL. The “MIC (range or typical value) against E. faecium” value in the data set with E. faecium isolates fell in the range of 4 to 8 µg/mL.

As for `C[C@@H](c1ccccc1)N(CCC(N)=O)C(=O)[C@H](CCCCN)NC(=O)CCN(C(=O)[C@H](CCCCNC(=N)N)NC(=O)CCN(C(=O)[C@H](CCCCN)NC(=O)CCN(C(=O)[C@H](CCCCNC(=N)N)NC(=O)CCN(C(=O)[C@H](CCCCN)NC(=O)CCN(C(=O)[C@H](CCCCNC(=N)N)NC(=O)CCN(C(=O)[C@H](CCCCN)NC(=O)CCN(C(=O)[C@@H](N)CCCCNC(=N)N)[C@@H](C)c1ccccc1)[C@@H](C)c1ccccc1)[C@@H](C)c1ccccc1)[C@@H](C)c1ccccc1)[C@@H](C)c1ccccc1)[C@@H](C)c1ccccc1)[C@@H](C)c1ccccc1` [Compound 4, H-[hArg-βNspe-Lys-βNspe]4-NH2], the Minimum inhibitory concentration in the data set on E. faecium 1798 was 4 µg/mL (≈ 1.53 µM); in the data set with E. faecium 2961 it was 4 µg/mL (≈ 1.53 µM); in the data set with E. faecium 3978 it was 4 to 8 µg/mL; with E. faecium D344R, 4 µg/mL (≈ 1.53 µM); with E. faecium ATCC 19434 [3], 8 µg/mL (≈ 3.06 µM); with E. faecalis ATCC 29212 [4], above 32 µg/mL. Also, the Minimum inhibitory concentration with E. faecalis 38262 (38262, 24 h) amounted to 16 µg/mL (≈ 6.12 µM); in the data set on E. faecalis 39002, 32 µg/mL (≈ 12.2 µM). Moreover, in data set [5], the “Hydrophobicity … retention converted into % MeCN” value turned out to be 43.6 % MeCN. The molecule also yielded a hemolysis at 60 min, 400 µg/mL in “Hemolytic activity” of 2.6%. Further, the “HepG2 IC50” value in data set [6] came out at 42 µg/mL. In the data set on E. faecium isolates, the “MIC (range or typical value) against E. faecium” value lay in the range of 4 to 8 µg/mL.

As for `NCCCC[C@H](NC(=O)CCN(Cc1ccc(F)cc1)C(=O)[C@H](CCCCN)NC(=O)CCN(Cc1ccc(F)cc1)C(=O)[C@H](CCCCN)NC(=O)CCN(Cc1ccc(F)cc1)C(=O)[C@H](CCCCN)NC(=O)CCN(Cc1ccc(F)cc1)C(=O)[C@H](CCCCN)NC(=O)CCN(Cc1ccc(F)cc1)C(=O)[C@H](CCCCN)NC(=O)CCN(Cc1ccc(F)cc1)C(=O)[C@H](CCCCN)NC(=O)CCN(Cc1ccc(F)cc1)C(=O)[C@@H](N)CCCCN)C(=O)N(CCC(N)=O)Cc1ccc(F)cc1` [Compound 7, H-[Lys-βNPhe(F)]8-NH2], the Minimum inhibitory concentration lay in the range of 2 to 4 µg/mL in the data set with E. faecium 1798; 2 to 4 µg/mL in the data set on E. faecium 2961; 4 to 8 µg/mL in the data set with E. faecium 3978; 4 to 8 µg/mL in the data set on E. faecium D344R; 8 to 16 µg/mL in the data set with E. faecium ATCC 19434 [3]; 8 to 16 µg/mL in the data set on E. faecalis ATCC 29212 [4]. For the same molecule, the Minimum inhibitory concentration with E. faecalis 38262 (E. faecalis 38262, veterinary isolate, 24 h) was above 32 µg/mL; in the data set on E. faecalis 39002 it was 8 to 16 µg/mL. For the same molecule, the “Hydrophobicity … retention converted into % MeCN” value in [5] was 41.3 % MeCN. Further, the hemolysis at 60 min, 400 µg/mL in “Hemolytic activity” worked out at 1.5%. The “HepG2 IC50” value in [6] was 50 µg/mL.

For the molecule `CNC(C)C1CCC(N)C(OC2C(N)CC(N)C(OC3OCC(C)(O)C(NC)C3O)C2O)O1` (centres unmarked) [Gentamicin, gentamicin], the figures for the MIC of antibiotic with E. faecium ATCC 19434 [1] and in the data set with E. faecalis ATCC 29212 [2] were 64 µg/mL and 16 µg/mL, respectively.

`CC(=O)NC[C@H]1CN(c2ccc(N3CCOCC3)c(F)c2)C(=O)O1` [Linezolid, linezolid]: the MIC of antibiotic with E. faecium ATCC 19434 [1] and with E. faecalis ATCC 29212 [2] was 2 µg/mL throughout.

Turning to `CO[C@H]1/C=C/O[C@@]2(C)Oc3c(C)c(O)c4c(O)c(c(/C=N/N5CCN(C)CC5)c(O)c4c3C2=O)NC(=O)/C(C)=C\C=C\[C@H](C)[C@H](O)[C@@H](C)[C@@H](O)[C@@H](C)[C@H](OC(C)=O)[C@@H]1C` [Rifampicin, rifampicin], the MIC of antibiotic in the data set with E. faecium ATCC 19434 [1] was 8 µg/mL; in the data set on E. faecalis ATCC 29212 [2], 1 µg/mL.
